# According to EP0876160B1, “LIGAND DIRECTED ENZYME PRODRUG THERAPY” (priority 1996, dated 1997):
# Experiments:
# NIH3T3 cells = experiment: Non-specific cytotoxicity assay, cell growth by [3H]-thymidine incorporation; format: cell-based
# Description: (§1) Confluent NIH3T3 cells were cultured in the absence (control, lane 1) or presence of 1mM CMDA prodrug (+CMDA, lane 2) for 18 hours. After incubation, the cells were diluted into fresh dishes (at a dilution of 100 fold) and allowed to grow for a further 6 days after which time the survival of the cells was determined by [^3H] thymidine incorporation. The results are expressed in terms of the % growth in terms of the control, which were considered to represent 100% cell growth.
# Confluent NIH3T3 cells were cultured in the presence of 1mM CMDA prodrug in the absence of any additions (control, lane 3) or in the presence of the indicated fusion proteins (lanes 4-8). The additions were : lane 4, CPH6; lane 5, CPV161H6; lane 6, V161CPH6; lane 7, V115CPH6; lane 8, pEFCPV109H6. For each fusion, 0.3 to 0.9 nM of the fusions were added as determined by quantitative immunoprotein blotting. The cells were incubated and processed as in section A above for cell growth. […]
# For the first assay, we wished to establish that CPH6 and the fusion proteins were able to direct prodrug dependent cyotoxicity of NIH3T3 cells, in a non-targeted manner. […] Samples of the purified proteins were added to NIH3T3 cells in the presence of the CMDA prodrug and the effects on cell viability were determined by measuring cell growth by [3H]-thymidine incorporation.
# [1] = system: human umbilical vein endothelial (Hu-V-ec) cells; experiment: VEGF-directed cytotoxicity assay, cell growth by [3H]-thymidine incorporation; format: cell-based
# Description: as §1, with “Confluent Hu-V-ec” for “Confluent NIH3T3”, “prodrug (+ CMDA,” for “prodrug (+CMDA,”, “of 3” for “of 100”
# Confluent Hu-V-ec cells were cultured in the absence of any additions (control, lane 3) or in the presence of CPH6 (27 nM, lane 4), or of V115CPH6 (11nM, lane 5) for 30 min. The cells were then washed 6 times with fresh medium and incubated overnight in the presence of 1mM CMDA. The cells were re-plated at a dilution of 1/3 and allowed to grow for a further 4 days after which time the cell growth was estimated by [3H]thymidine incorporation. The results are expressed in terms of the % growth in terms of the control lane, which were considered to represent 100% cell growth.
# The fusion proteins were assesed for their ability to direct the CMDA-dependent killing of cells which express specific receptors for VEGF on their surface. For this analysis, we employed human umbilical vein endothelial (Hu-V-ec) cells, which are dependent for growth on VEGF (Prog Growth Factor Res, 5, 89, 1994). […] The cells were incubated in the presence of CPH6, or V115CPH6 for 30 min to allow the fusion proteins to bind to the cell surface and then the cells were washed to remove unbound protein. CMDA was added and cell survival was determined by [3H]-thymidine incorporation.
# [2] = target: CPG2/VEGF fusion protein CPV109H6 (CPG2 amino acids 23-415 fused via peptide spacer to VEGF amino acids 1-109, polyhistidine tag), SEQ ID No. 18 (UniProt P06621+P15692, form not given/N222Q/N264Q/N272Q); conditions: substrate MTX; CPV109H6 expressed in Sf9 cells, Ni++-NTA purified; 25°C, pH 7.3
# Excerpt: (§2) Using this protocol, CPH6, V161CPH6, V115CPH6 and CPV109H6 were all purified from Sf9 cells by Ni++-NTA-Agarose affinity chromatography as described above. These samples were used to determine the affinity of the CPG2 moiety for the substrate MTX.
# [3] = target: Carboxypeptidase G2 (CPG2) construct CPH6 (c-erbB2 signal peptide, CPG2 amino acids 23-415, three Asn -> Gln glycosylation-site mutations N222, 264 and 272 > Q, (Pseudomonas sp., UniProt P06621, N222Q/N264Q/N272Q)); conditions: substrate MTX; CPH6 expressed in Sf9 cells, Ni++-NTA purified; 25°C, pH 7.3
# Excerpt: as §2
# [4] = target: VEGF/CPG2 fusion protein V115CPH6 (VEGF amino acids 1-115 fused to CPG2, polyhistidine tag), SEQ ID No. 10 (UniProt P06621+P15692, form not given/N222Q/N264Q/N272Q); conditions: substrate MTX; V115CPH6 expressed in Sf9 cells, Ni++-NTA purified; 25°C, pH 7.3
# Excerpt: as §2
# [5] = target: VEGF/CPG2 fusion protein V161CPH6 (VEGF amino acids 1-161 fused to CPG2 amino acids 23-415, polyhistidine tag), SEQ ID No. 8 (UniProt P06621+P15692, form not given/N222Q/N264Q/N272Q); conditions: substrate MTX; V161CPH6 expressed in Sf9 cells, Ni++-NTA purified; 25°C, pH 7.3
# Excerpt: as §2
# [6] = target: bacterially produced CPG2 (Carboxypeptidase G2, wild type) (Pseudomonas sp., UniProt P06621); conditions: substrate MTX; cited from earlier work
Compound,"growth of cells (NIH3T3 cells; 1mM CMDA alone, 18 hours, then 6 days growth)",cell death (NIH3T3 cells; 1mM CMDA in the presence of sub-nanomolar (0.3 to 0.9 nM) CPH6 or each of the fusion proteins),"sensitivity (growth rate) ([1]; 1mM CMDA alone, 18 hours)","growth rate of the cells ([1]; cells pre-incubated with CPH6 (27 nM) 30 min, washed, then 1mM CMDA overnight)","inhibition of cell growth ([1]; cells pre-incubated with V115CPH6 (11nM) 30 min, washed, then 1mM CMDA overnight) [%]",Km [2] [µM],Km [3] [µM],Km [4] [µM],Km [5] [µM],Km [6] [µM]
"CS(=O)(=O)OCCN(CCCl)c1ccc(C(=O)N[C@@H](CCC(=O)O)C(=O)O)cc1 [CMDA, N-4-[(2-chloroethyl)(2-mesyloxyethyl)amino]benzoyl-L-glutamic acid]",does not significantly affect the growth,complete cell death,not significantly sensitive,no significant affect on the growth rate,> 90,,,,,
"CN(Cc1cnc2nc(N)nc(N)c2n1)c1ccc(C(=O)N[C@@H](CCC(=O)O)C(=O)O)cc1 [MTX, Methotrexate]",,,,,,9.1 ± 1.1,19.6 ± 3.2,17 ± 1,18.2 ± 1.5,~10
